Where two headings read alike, the source gives them in different places.
Experiments:
[1] = target: PARP2 (Homo sapiens, UniProt Q9UGN5); assay: PARP enzyme assay (PARP2); format: biochemical
Text: Step 2: Ribosylation Reaction

[2] = system: PAR in UWB 1.289 cells; assay: PAR inhibition in UWB 1.289 cells (western blot); format: cell-based, human; conditions: for PAR % inhibition in UWB 1.289 @ 10 nM: 0.01 µM; for inhibition at 0.01 µM: Homo sapiens
Procedure: Example-3 UWB 1.289 cells were plated at a predetermined density in a 6-well plate in its respective media and plates were incubated at 37° C. and 5% CO2 overnight. After overnight incubation, the plates were treated with desired concentrations of the compound or DMSO and the plates were incubated at 37° C. and 5% CO2 as required for 24 hours. After completion of 24 hours incubation, total cell lysates were prepared from the treated samples. Lysates were analysed by western-blot analysis and probed with Human PAR specific monoclonal antibody or human specific beta-actin monoclonal antibody (loading control). Western-blot images were developed after exposing them to chemiluminescent substrate and images were captured on imaging system. Target specific bands and loading specific bands were measured using densitometric analysis. Densitometric values of target specific bands were normalized to loading control values. % inhibition of PAR was calculated relative to DMSO treated samples. Results: % inhibitions values are given below in Table-2: […]

[3] = target: PARP1 (Homo sapiens, UniProt P09874); assay: PARP enzyme assay (PARP1, chemiluminescent histone ribosylation); conditions: for % inhibition 10 nM / % inhibition 100 nM: PARP enzyme assay; for % inhibition 10 nM: 10 nM compound; for % inhibition 100 nM: 100 nM compound
Sequence of PARP1 (P09874 whole entry, species assumed): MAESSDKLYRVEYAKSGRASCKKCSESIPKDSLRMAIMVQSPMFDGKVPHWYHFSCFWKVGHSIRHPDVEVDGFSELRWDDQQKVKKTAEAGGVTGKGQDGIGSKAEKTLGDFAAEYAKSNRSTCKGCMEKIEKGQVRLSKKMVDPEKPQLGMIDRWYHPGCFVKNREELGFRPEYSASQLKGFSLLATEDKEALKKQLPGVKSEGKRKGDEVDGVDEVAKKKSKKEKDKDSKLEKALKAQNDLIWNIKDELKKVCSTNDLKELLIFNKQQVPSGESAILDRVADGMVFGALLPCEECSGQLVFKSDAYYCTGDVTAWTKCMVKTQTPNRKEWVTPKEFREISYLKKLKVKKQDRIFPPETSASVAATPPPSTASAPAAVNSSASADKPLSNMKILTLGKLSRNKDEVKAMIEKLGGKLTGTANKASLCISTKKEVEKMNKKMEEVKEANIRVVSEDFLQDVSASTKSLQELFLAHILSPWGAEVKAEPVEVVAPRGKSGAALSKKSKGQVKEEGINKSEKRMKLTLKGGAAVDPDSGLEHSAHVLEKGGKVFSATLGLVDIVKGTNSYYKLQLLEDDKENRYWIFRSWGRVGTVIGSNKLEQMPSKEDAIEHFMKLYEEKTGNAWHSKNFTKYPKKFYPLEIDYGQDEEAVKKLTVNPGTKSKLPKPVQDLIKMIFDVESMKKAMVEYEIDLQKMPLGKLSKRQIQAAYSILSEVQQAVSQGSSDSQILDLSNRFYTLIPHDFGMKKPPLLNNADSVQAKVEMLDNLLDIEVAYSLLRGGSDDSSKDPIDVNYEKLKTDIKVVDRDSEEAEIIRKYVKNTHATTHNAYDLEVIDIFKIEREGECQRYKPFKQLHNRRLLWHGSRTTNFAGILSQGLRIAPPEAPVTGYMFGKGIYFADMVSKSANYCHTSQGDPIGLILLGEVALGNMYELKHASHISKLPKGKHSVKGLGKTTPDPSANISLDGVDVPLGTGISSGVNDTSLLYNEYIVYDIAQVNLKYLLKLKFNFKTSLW
Procedure: 1) Coat 25 µL of histone solution onto a 384-well plate as described below: • Dilute 5x histone mixture 1:5 with PBS. • Add 25 µL of diluted histone solution to each well and incubate at 4° C. overnight. • Wash the plate three times using 100 µL PBST buffer (1x PBS containing 0.05% Tween20) per well. • Tap plate onto clean paper towel to remove liquid. • Block the wells by adding 100 µL of Blocking buffer 3 to every well. Incubate at room temperature for 1 h 15 minutes. • Wash plate three times with 100 µL PBST buffer as described above. • Tap plate onto clean paper towel to remove liquid.
1) Preparation of 1X PARP Buffer: • Prepare 1x PARP buffer by adding 1 part of 10x PARP buffer to 9 parts distilled water (v/v). To prepare 500 µL of 1X PARP buffer, add 50 µL 10X PARP Assay buffer to 450 µL of H2O and mix well.
2) Preparation of the Ribosylation master mixture: • N wells x (1.25 µL 10x PARP buffer + 1.25 µL 10X PARP Assay mixture + 2.5 µL Activated DNA + 7.5 µL distilled water). Add 12.5 µL to every well.
3) Preparation of the inhibitor solution: • 10 mM stock solution of the inhibitor was prepared in DMSO. From 10 mM stock solution, 250X concentrations of the inhibitor were made in DMSO. • 250X DMSO concentrations of the inhibitor were further diluted to 10X concentrations in 1X kinase buffer. • 2.5 µL (10X concentrations) of kinase buffer containing inhibitor was added to each well. • For the “Positive Control” and “Blank”, add 2.5 µL of kinase buffer containing DMSO (4%) was added. • The final DMSO concentration in the well was 0.4 %.
4) Preparation of the enzyme solution: • Thaw PARP1 enzyme on ice. Upon first thaw, briefly spin tube containing enzyme to recover full content of the tube. Calculate the amount of PARP1 required for the assay and dilute enzyme to 2.0 ng/µL with 1x PARP buffer. • Initiate reaction by adding 10 µL of diluted PARP1 enzyme to the wells designated “Positive Control” and “Test Inhibitor”. • To the wells designated as “Blank”, add 10 µL of 1X PARP buffer. • Centrifuge the plate at 1000 rpm for 30 seconds and incubate at room temperature for 60 min. • Discard the reaction mixture after 1 hour, and wash plate three times with 100 µL PBST buffer and tap plate onto clean paper towel as described above.
1) Preparation of Streptavidin-HRP: • Dilute Streptavidin-HRP 1:50 in Blocking buffer. • Add 25 µL of diluted Streptavidin-HRP to each well. Incubate for 30 min. at room temperature. • Wash three times with 100 µL PBST buffer and tap plate onto clean paper towel as above as described above.
2) Preparation of ECL substrate: • Just before use, mix on ice equal amounts of ELISA ECL Substrate A and ELISA ECL Substrate B and add 50 µL per well. • Immediately read the plate in microtiter-plate in Chemiluminescence setting. The “Blank” value is subtracted from all other values.

[4] = UWB 1.289 cells, 10 nM, 24 hours, western blot relative to DMSO
[5] = read-out: % inhibition 100 nM, PARP enzyme assay, 100 nM compound
[6] = UWB1289, 24 h, read-out: PAR % inhibition in UWB 1.289 @ 10 nM, UWB 1.289 cells, 10 nM, 24 hours, western blot relative to DMSO
[7] = UWB1289, read-out: PAR % inhibition in UWB 1.289 @ 10 nM, UWB 1.289 cells, 10 nM, 24 hours, western blot relative to DMSO

Sequence of PARP2 (Q9UGN5 whole entry, species assumed): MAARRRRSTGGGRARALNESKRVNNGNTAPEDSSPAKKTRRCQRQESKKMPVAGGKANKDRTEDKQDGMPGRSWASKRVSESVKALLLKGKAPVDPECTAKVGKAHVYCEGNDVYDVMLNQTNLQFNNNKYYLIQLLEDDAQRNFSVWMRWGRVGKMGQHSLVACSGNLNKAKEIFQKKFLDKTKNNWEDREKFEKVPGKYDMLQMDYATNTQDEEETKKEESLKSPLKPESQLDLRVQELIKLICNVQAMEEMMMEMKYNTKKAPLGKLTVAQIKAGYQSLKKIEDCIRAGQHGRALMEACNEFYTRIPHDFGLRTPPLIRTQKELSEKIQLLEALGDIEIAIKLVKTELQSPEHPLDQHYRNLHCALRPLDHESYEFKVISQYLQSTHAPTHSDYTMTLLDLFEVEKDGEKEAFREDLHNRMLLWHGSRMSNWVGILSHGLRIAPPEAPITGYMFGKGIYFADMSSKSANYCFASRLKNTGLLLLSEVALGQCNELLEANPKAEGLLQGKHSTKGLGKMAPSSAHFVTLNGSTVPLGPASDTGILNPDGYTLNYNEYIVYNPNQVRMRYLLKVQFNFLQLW

| Structure (SMILES) | IC50 [1] [nM] | PAR % inhibition in UWB 1.289 @ 10 nM [2, 4] | melting point [°C] | IC50 [3] [nM] | inhibition at 0.01 µM [2, 7] [%] | further results |
| --- | --- | --- | --- | --- | --- | --- |
| CC1(O)C(=O)N(c2cncc(Cc3n[nH]c(=O)c4cc(F)ccc34)c2)c2ccc(F)cc21 (single isomer, unassigned; (+)) [Example 11, (+)-7-Fluoro-4-((5-(5-fluoro-3-hydroxy-3-methyl-2-oxoindolin-1-yl)pyridin-3-yl)methyl)phthalazin-1(2H)-one] | < 10 | A (A represents >75% to 100%) | 148 to 151 | < 10 | – | inhibition at 0.01 µM ([3]; read-out: % inhibition 10 nM, PARP enzyme assay, 10 nM compound): 75 to 100%; inhibition at 0.1 µM [3, 5]: 75 to 100% |
| CC1(O)C(=O)N(c2cncc(Cc3n[nH]c(=O)c4ccccc34)c2)c2ccc(F)cc21 (single isomer, unassigned; (+)) [Example 14, (+)-4-((5-(5-Fluoro-3-hydroxy-3-methyl-2-oxoindolin-1-yl)pyridin-3-yl)methyl)phthalazin-1(2H)-one] | < 10 | A (A represents >75% to 100%) | 198 to 201 | < 10 | – | % inhibition 10 nM ([3]; 0.01 µM): B (B represents >50% to ≤75%); inhibition at 0.1 µM [3, 5]: 75 to 100% |
| CC1(O)C(=O)N(c2cc(Cc3n[nH]c(=O)c4ccccc34)ccn2)c2ccccc21 (single isomer, unassigned; (+)) [Example 20, (+)-4-((2-(3-Hydroxy-3-methyl-2-oxoindolin-1-yl)pyridin-4-yl)methyl)phthalazin-1(2H)-one] | < 10 | – | 205 to 208 | – | – | inhibition at 0.01 µM [2, 6]: 50 to 75%; % inhibition 10 nM [3]: A (A represents >75% to 100%); % inhibition 100 nM [3]: A (A represents >75% to 100%); IC50 ([3]; read-out: IC50 (nM)-PARP1): < 10 nM |
| CC1(O)C(=O)N(c2cc(Cc3n[nH]c(=O)c4cc(F)ccc34)ccn2)c2ccccc21 (single isomer, unassigned; (+)) [Example 23, (+)-7-Fluoro-4-((2-(3-hydroxy-3-methyl-2-oxoindolin-1-yl)pyridin-4-yl)methyl)phthalazin-1(2H)-one] | < 10 | D (D represents ≤25%) | 167 to 170 | – | – | – |
| CC1(O)C(=O)N(c2cncc(Cc3n[nH]c(=O)c4cc(F)ccc34)c2)c2ccccc21 (single isomer, unassigned; (-)) [Example 8, (-)-7-Fluoro-4-((5-(3-hydroxy-3-methyl-2-oxoindolin-1-yl)pyridin-3-yl)methyl)phthalazin-1(2H)-one] | < 10 | C (C represents >25% to ≤50%) | 138 to 141 | – | – | – |
| CC1(O)C(=O)N(c2cncc(Cc3n[nH]c(=O)c4cc(F)ccc34)c2)c2ccc(F)cc21 (single isomer, unassigned; (-)) [Example 12, (-)-7-Fluoro-4-((5-(5-fluoro-3-hydroxy-3-methyl-2-oxoindolin-1-yl)pyridin-3-yl)methyl)phthalazin-1(2H)-one] | < 10 | D (D represents ≤25%) | 154 to 157 | – | – | % inhibition 10 nM [3]: A (A represents >75% to 100%); % inhibition 100 nM [3]: A (A represents >75% to 100%); IC50 ([3]; read-out: IC50 (nM)-PARP1): < 10 nM |
| CC1(O)C(=O)N(c2cncc(Cc3n[nH]c(=O)c4ccccc34)c2)c2ccc(F)cc21 (single isomer, unassigned; (-)) [Example 15, (-)-4-((5-(5-Fluoro-3-hydroxy-3-methyl-2-oxoindolin-1-yl)pyridin-3-yl)methyl)phthalazin-1(2H)-one] | < 10 | D (D represents ≤25%) | 197 to 200 | – | – | % inhibition 10 nM ([3]; 0.01 µM): A (A represents >75% to 100%); % inhibition 100 nM [3]: A (A represents >75% to 100%); IC50 ([3]; read-out: IC50 (nM)-PARP1): < 10 nM |
| CC1(O)C(=O)N(c2cc(Cc3n[nH]c(=O)c4cc(F)ccc34)ccn2)c2ccccc21 (single isomer, unassigned; (-)) [Example 22, (-)-7-Fluoro-4-((2-(3-hydroxy-3-methyl-2-oxoindolin-1-yl)pyridin-4-yl)methyl)phthalazin-1(2H)-one] | < 10 | – | 165 to 168 | – | – | inhibition at 0.01 µM [2, 6]: 25 to 50% |
| CC1(O)C(=O)N(c2cncc(Cc3n[nH]c(=O)c4ccccc34)c2)c2ccccc21 (centres unmarked) [Example 1, 4-((5-(3-Hydroxy-3-methyl-2-oxoindolin-1-yl)pyridin-3-yl)methyl)phthalazin-1(2H)-one] | < 10 | – | 110 to 113 | < 10 | 50 to 75 | inhibition at 0.01 µM ([3]; read-out: % inhibition 10 nM): 75 to 100%; inhibition at 0.1 µM ([3]; read-out: % inhibition 100 nM): 75 to 100% |
| C[C@@]1(O)C(=O)N(c2cncc(Cc3n[nH]c(=O)c4ccccc34)c2)c2ccccc21 [Example 3, (S)-(-)-4-((5-(3-Hydroxy-3-methyl-2-oxoindolin-1-yl)pyridin-3-yl)methyl)phthalazin-1(2H)-one] | < 10 | – | 94 to 97 | < 10 | – | inhibition at 0.01 µM [2, 6]: < 25% |
| CC1(O)C(=O)N(c2cc(Cc3n[nH]c(=O)c4cc(F)ccc34)ccn2)c2ccccc21 (centres unmarked) [Example 21, 7-Fluoro-4-((2-(3-hydroxy-3-methyl-2-oxoindolin-1-yl)pyridin-4-yl)methyl)phthalazin-1(2H)-one] | > 10 | – | 187 to 189 | – | 25 to 50 | – |
| CC1(O)C(=O)N(c2cc(Cc3n[nH]c(=O)c4cc(F)ccc34)ccn2)c2ccc(F)cc21 (centres unmarked) [Example 24, 7-Fluoro-4-((2-(5-fluoro-3-hydroxy-3-methyl-2-oxoindolin-1-yl)pyridin-4-yl)methyl)phthalazin-1(2H)-one] | < 10 | – | 225 to 228 | < 10 | 25 to 50 | – |
| O=C1N(c2cncc(Cc3n[nH]c(=O)c4ccccc34)c2)c2ccccc2C1(O)C(F)(F)F (centres unmarked) [Example 25, 4-((5-(3-Hydroxy-2-oxo-3-(trifluoromethyl)indolin-1-yl)pyridin-3-yl)methyl)phthalazin-1(2H)-one] | < 10 | – | 258 to 260 | < 10 | 25 to 50 | inhibition at 0.01 µM ([3]; read-out: % inhibition 10 nM): 75 to 100%; inhibition at 0.1 µM ([3]; read-out: % inhibition 100 nM): 75 to 100% |
